# Measured values reported in patent US20240024494A1, “SMALL-MOLECULE CONJUGATE AND USE THEREOF” (SHANGHAI MEWSGEN BIOTECHNOLOGY CO., LTD, priority 2020, published 2024).
# Key:
# Type in all cases: cell-based
# [1] = system: MGC803 (human gastric carcinoma cells); settings: 72 h
# Excerpt: (§1) A part of the compounds of the examples of the present disclosure were subjected to a tumor cell proliferation inhibition test by using an MTT method (e.g. Pharmacological Research Method of New Drug, 2007: 242-243, edited by Lu Qiujun).
# (§2) A cell strain was selected from KYSE-150 (human esophageal squamous carcinoma cells), MGC803 (human gastric carcinoma cells), and SHG44 (human glioma cells), and frozen and passaged by a pharmacological laboratory of Shanghai Institute of Pharmaceutical Industry. A culture solution was DMEM+10% FBS+double antibody.
# (§3) In-vitro activity test: 100 μL of a cell suspension at a concentration of 4-5×10^4/mL was added to each well of a 96-well plate, and placed in a 5% CO2 incubator at 37° C. After 24 h, a sample solution was added at 10 μL/well, double duplicate wells were set, and a reaction was performed at 37° C. with 5% CO2 for 72 h. 20 μL of 5 mg/ml of an MTT solution was added into each well and reacted for 4 h, a dissolving solution was added at 100 μL/well, the mixture was placed in an incubator, and after dissolution, an OD value at 570 nm was measured with a full-wavelength multifunctional microplate reader. An inhibition rate (IR) and a median inhibitory concentration (IC50) were calculated by using an Excel software.
# (§4) The inhibition rate (IR %) of the drug on cell growth was calculated according to the following equation: […]
# [2] = system: SHG44 (human glioma cells); settings: 72 h
# Excerpt: as §1, §2, §3, §4
# [3] = system: KYSE-150 (human esophageal squamous carcinoma cells); settings: 72 h
# Excerpt: as §1, §2, §3, §4
# [4] = system: MGC803 (human gastric cancer cells); assay: Tumor cell proliferation inhibition test, CCK-8 method (Example 21); settings: Homo sapiens, MGC-803; CCK-8, 72 h, Table 3; read-out: IC50 MGC803
# Protocol: (§5) A part of the compounds prepared in the examples of the present disclosure were subjected to a tumor cell proliferation inhibition test by using a CCK-8 method. Cell lines HCT116 (human colon cancer cells), MGC803 (human gastric cancer cells), and MIA PACA-2 (human pancreatic cancer cells) were purchased from Shanghai Meixuan Technology Co., Ltd. Samples (a part of the compounds prepared in the examples) were dissolved in DMSO (Merck), prepared into a concentration of 10 mM, and finally triply diluted in DMEM or McCoy's 5A 1640 medium to 8 concentration gradients. A cell culture solution was collected when a cell culture met a test requirement, 10 μL of the cell culture solution was uniformly coated on a cell counting plate, cells were counted for 3 times under a microscope, and a cell density was calculated by taking an average value; and a 96-well plate (Corning, #3599) was taken, 200 μL of the cell culture solution was added into each well for cell inoculation at a cell concentration of 6×10^3 cells per well, and the inoculated 96-well plate was incubated in a cell incubator containing 5% CO2 at 37° C. for 24 h. An old culture medium was removed by suction, 200 μL of the triply diluted sample DMEM or McCoy's 5A 1640 medium at an initial concentration of 10 μmol/L was added to each well, the DMSO content was controlled to be 1%, three duplicate wells were set, PBS was used as a blank control, and the plate was incubated in the incubator for 72 h. The original DMEM or McCoy's 5A 1640 medium in the 96-well plate and a PBS buffer in a final row were sucked out, a prepared CCK-8 solution (90% DMEM or McCoy's 5A 1640 medium+10% CCK-8) was added, the mixture was incubated in an incubator, and an absorbance was read by using a Biotek microplate reader. Cell growth inhibition rate IC %=(blank control well OD value−administration well OD value)/blank control well OD value×100%.
# [5] = system: MIA PACA-2 (human pancreatic cancer cells); assay: as above; settings: Homo sapiens, MIA PaCa-2; CCK-8, 72 h, Table 3; read-out: IC50 MIA PACA-2
# Protocol: as §5
# [6] = system: HCT116 (human colon cancer cells); assay: as above; settings: Homo sapiens, HCT-116; CCK-8, 72 h, Table 3; read-out: IC50 HCT116
# Protocol: as §5
IC50 [4] [µM],IC50 [5] [µM],IC50 [6] [µM],SMILES,IC50 [1] [µM],IC50 [2] [µM],IC50 [3] [µM]
,,,COc1cc(C(=O)NCCOCCOCCOCCOCCC(=O)N[C@@H](C(=O)N[C@@H](CCCNC(N)=O)C(=O)Nc2ccc(COC(=O)N3CCN(C(=O)O[C@H]4CC[C@@]5(C)[C@H](CC[C@@H]6[C@@H]5[C@H](O)C(=O)[C@]5(C)[C@@H](c7ccc(=O)oc7)CC[C@]65O)C4)CC3)cc2)C(C)C)ccc1NC(=O)[C@@H]1N[C@@H](CC(C)(C)C)[C@](C#N)(c2ccc(Cl)cc2F)[C@H]1c1cccc(Cl)c1F [Compound I-1],0.009,0.003,0.04
1.09,> 10,0.11,"COc1cc(C(=O)O)ccc1NC(=O)[C@@H]1N[C@@H](CC(C)(C)C)[C@](C#N)(c2ccc(Cl)cc2F)[C@H]1c1cccc(Cl)c1F [Idasanutlin, reference compound]",,,
